Laboratory results: patent US10750743B2, “Pyridazinone herbicides” (E.I. DU PONT DE NEMOURS AND COMPANY, priority 2015, dated 2020)

What was measured:
Format in all cases: in vivo
[1] = tested on: ragweed (common ragweed, Ambrosia elatior); test: Test A postemergence application, visual injury rating; conditions: Ambrosia artemisiifolia, post-emergence, 240 h, 0 to 100 scale, 0 no effect, 100 complete control, read-out: Ragweed plant response rating; for pest or weed control at 125 g/ha: 125 g ai/ha; for pest or weed control at 500 g/ha: 500 g ai/ha
Method in brief: (§1)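 Seeds sown in a loam soil–sand blend received a directed preemergence soil spray of test chemical in a non-phytotoxic solvent mixture with surfactant. Postemergence plants were sprayed at 2 to 10 cm, one- to two-leaf stage. After approximately 10 d in greenhouse, injury was visually rated 0 (no effect) to 100 (complete control) against untreated controls.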

[2] = tested on: galium (catchweed bedstraw, Galium aparine); test: as above; conditions: Galium, post-emergence, 240 h, 0 to 100 scale, 0 no effect, 100 complete control, read-out: Galium plant response rating; for pest or weed control at 125 g/ha: 125 g ai/ha; for pest or weed control at 500 g/ha: 500 g ai/ha
Method in brief: as §1

[3] = tested on: pigweed (Amaranthus retroflexus); test: as above; conditions: Amaranthus retroflexus, post-emergence, 240 h, 0 to 100 scale, 0 no effect, 100 complete control, read-out: Pigweed plant response rating; for pest or weed control at 125 g/ha: 125 g ai/ha; for pest or weed control at 500 g/ha: 500 g ai/ha
Method in brief: as §1

[4] = tested on: barnyardgrass (Echinochloa crus-galli); test: as above; conditions: Echinochloa crus-galli, post-emergence, 240 h, 0 to 100 scale, 0 no effect, 100 complete control, read-out: Barnyardgrass plant response rating; for pest or weed control at 125 g/ha: 125 g ai/ha; for pest or weed control at 500 g/ha: 500 g ai/ha
Method in brief: as §1

kochia (Kochia scoparia) [5] = test: as above; conditions: Bassia scoparia, post-emergence, 240 h, 0 to 100 scale, 0 no effect, 100 complete control, read-out: Kochia plant response rating; for pest or weed control at 125 g/ha: 125 g ai/ha; for pest or weed control at 500 g/ha: 500 g ai/ha
Method in brief: as §1

[6] = tested on: foxtail, giant (giant foxtail, Setaria faberii); test: as above; conditions: Setaria faberi, post-emergence, 240 h, 0 to 100 scale, 0 no effect, 100 complete control, read-out: Foxtail, Giant plant response rating; for pest or weed control at 125 g/ha: 125 g ai/ha; for pest or weed control at 500 g/ha: 500 g ai/ha
Method in brief: as §1

[7] = tested on: ryegrass, It. (Italian ryegrass, Lolium multiflorum); test: as above; conditions: Lolium multiflorum, post-emergence, 240 h, 0 to 100 scale, 0 no effect, 100 complete control, read-out: Ryegrass, It. plant response rating; for pest or weed control at 125 g/ha: 125 g ai/ha; for pest or weed control at 500 g/ha: 500 g ai/ha
Method in brief: as §1

corn (Zea mays) = test: as above; conditions: Zea mays, post-emergence, 240 h, 0 to 100 scale, 0 no effect, 100 complete control, read-out: Corn plant response rating; for plant injury at 125 g/ha: 125 g ai/ha; for plant injury at 500 g/ha: 500 g ai/ha
Method in brief: as §1

[8] = tested on: barnyardgrass (Echinochloa crus-galli); test: Test B flooded paddy test, visual rating; conditions: Echinochloa crus-galli, 360 h; Flood, 250 g ai/ha, applied to paddy water, rated after 13 to 15 d; read-out: Barnyardgrass plant response rating (0 to 100 scale, 0 is no effect, 100 is complete control)
Method in brief: (§2)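 Plants at the 2-leaf stage were flooded to 3 cm above soil, and test compounds were applied directly into the paddy water, which was held at that depth throughout. After 13 to 15 d in a greenhouse, injury was rated visually against untreated controls on a 0–100 scale (0 no effect, 100 complete control).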

[9] = tested on: ducksalad (Heteranthera limosa); test: Test B flooded paddy test, visual rating; conditions: Heteranthera limosa, 360 h; Flood, 250 g ai/ha, applied to paddy water, rated after 13 to 15 d; read-out: Ducksalad plant response rating (0 to 100 scale, 0 is no effect, 100 is complete control)
Method in brief: as §2

[10] = tested on: sedge, umbrella (small-flower umbrella sedge, Cyperus difformis); test: Test B flooded paddy test, visual rating; conditions: Cyperus difformis, 360 h; Flood, 250 g ai/ha, applied to paddy water, rated after 13 to 15 d; read-out: Sedge, Umbrella plant response rating (0 to 100 scale, 0 is no effect, 100 is complete control)
Method in brief: as §2

rice (Oryza sativa) = test: Test B flooded paddy test, visual rating; conditions: Oryza sativa, 360 h; Flood, 250 g ai/ha, applied to paddy water, rated after 13 to 15 d; read-out: Rice plant response rating (0 to 100 scale, 0 is no effect, 100 is complete control)
Method in brief: as §2

[11] = tested on: ragweed (common ragweed, Ambrosia elatior); test: Test A preemergence, directed soil spray, visual injury rating; conditions: Ambrosia artemisiifolia, pre-emergence, 240 h, 0 is no effect, 100 is complete control, read-out: Plant response rating (0 to 100 scale), Ragweed; for pest or weed control at 125 g/ha: 125 g ai/ha; for pest or weed control at 500 g/ha: 500 g ai/ha
Method in brief: as §1

[12] = tested on: pigweed (Amaranthus retroflexus); test: as above; conditions: Amaranthus retroflexus, pre-emergence, 240 h, 0 is no effect, 100 is complete control, read-out: Plant response rating (0 to 100 scale), Pigweed; for pest or weed control at 125 g/ha: 125 g ai/ha; for pest or weed control at 500 g/ha: 500 g ai/ha
Method in brief: as §1

[13] = tested on: barnyardgrass (Echinochloa crus-galli); test: as above; conditions: Echinochloa crus-galli, pre-emergence, 240 h, 0 is no effect, 100 is complete control, read-out: Plant response rating (0 to 100 scale), Barnyardgrass; for pest or weed control at 125 g/ha: 125 g ai/ha; for pest or weed control at 500 g/ha: 500 g ai/ha
Method in brief: as §1

kochia (Kochia scoparia) [14] = test: as above; conditions: Bassia scoparia, pre-emergence, 240 h, 0 is no effect, 100 is complete control, read-out: Plant response rating (0 to 100 scale), Kochia; for pest or weed control at 125 g/ha: 125 g ai/ha; for pest or weed control at 500 g/ha: 500 g ai/ha
Method in brief: as §1

[15] = tested on: foxtail, giant (giant foxtail, Setaria faberii); test: as above; conditions: Setaria faberi, pre-emergence, 240 h, 0 is no effect, 100 is complete control, read-out: Plant response rating (0 to 100 scale), Foxtail, Giant; for pest or weed control at 125 g/ha: 125 g ai/ha; for pest or weed control at 500 g/ha: 500 g ai/ha
Method in brief: as §1

[16] = tested on: ryegrass, It. (Italian ryegrass, Lolium multiflorum); test: as above; conditions: Lolium multiflorum, pre-emergence, 240 h, 0 is no effect, 100 is complete control, read-out: Plant response rating (0 to 100 scale), Ryegrass, It.; for pest or weed control at 125 g/ha: 125 g ai/ha; for pest or weed control at 500 g/ha: 500 g ai/ha
Method in brief: as §1

Structure (SMILES): Cc1nn(C)c(=O)c(-c2cccc3snc(C)c23)c1O [Compound 25, 5-hydroxy-2,6-dimethyl-4-(3-methyl-1,2-benzisothiazol-4-yl)-3 (2H)-pyridazinone]
- pest or weed control at 125 g/ha [1]: 70%
- pest or weed control at 500 g/ha [1]: 90%
- pest or weed control at 125 g/ha [2]: 80%
- pest or weed control at 500 g/ha [2]: 90%
- pest or weed control at 125 g/ha [3]: 90%
- pest or weed control at 500 g/ha [3]: 90%
- pest or weed control at 125 g/ha [4]: 20%
- pest or weed control at 500 g/ha [4]: 40%
- pest or weed control at 125 g/ha (kochia (Kochia scoparia) [5]): 100%
- pest or weed control at 500 g/ha (kochia (Kochia scoparia) [5]): 100%
- pest or weed control at 125 g/ha [6]: 30%
- pest or weed control at 500 g/ha [6]: 80%
- pest or weed control at 125 g/ha [7]: 20%
- pest or weed control at 500 g/ha [7]: 70%
- plant injury at 125 g/ha (corn (Zea mays)): 0%
- plant injury at 500 g/ha (corn (Zea mays)): 20%
- pest or weed control at 250 g/ha [8]: 0%
- pest or weed control at 250 g/ha [9]: 0%
- pest or weed control at 250 g/ha [10]: 0%
- plant injury at 250 g/ha (rice (Oryza sativa)): 0%
- pest or weed control at 125 g/ha [11]: 40%
- pest or weed control at 500 g/ha [11]: 70%
- pest or weed control at 125 g/ha [12]: 80%
- pest or weed control at 500 g/ha [12]: 100%
- pest or weed control at 125 g/ha [13]: 0%
- pest or weed control at 500 g/ha [13]: 40%
- pest or weed control at 125 g/ha (kochia (Kochia scoparia) [14]): 100%
- pest or weed control at 500 g/ha (kochia (Kochia scoparia) [14]): 100%
- pest or weed control at 125 g/ha [15]: 30%
- pest or weed control at 500 g/ha [15]: 80%
- pest or weed control at 125 g/ha [16]: 0%
- pest or weed control at 500 g/ha [16]: 30%

Structure (SMILES): Cc1ccc2sccc2c1-c1c(O)c(C)nn(C)c1=O [Compound 29, 5-hydroxy-2,6-dimethyl-4-(5-methylbenzo[b]thien-4-yl)-3(2H)-pyridazinone]
- pest or weed control at 125 g/ha [1]: 80%
- pest or weed control at 500 g/ha [1]: 80%
- pest or weed control at 125 g/ha [2]: 90%
- pest or weed control at 500 g/ha [2]: 100%
- pest or weed control at 125 g/ha [3]: 90%
- pest or weed control at 500 g/ha [3]: 100%
- pest or weed control at 125 g/ha [4]: 20%
- pest or weed control at 500 g/ha [4]: 70%
- pest or weed control at 125 g/ha (kochia (Kochia scoparia) [5]): 90%
- pest or weed control at 500 g/ha (kochia (Kochia scoparia) [5]): 100%
- pest or weed control at 125 g/ha [6]: 20%
- pest or weed control at 500 g/ha [6]: 80%
- pest or weed control at 125 g/ha [7]: 100%
- pest or weed control at 500 g/ha [7]: 90%
- plant injury at 125 g/ha (corn (Zea mays)): 20%
- plant injury at 500 g/ha (corn (Zea mays)): 50%
- pest or weed control at 250 g/ha [8]: 0%
- pest or weed control at 250 g/ha [9]: 0%
- pest or weed control at 250 g/ha [10]: 0%
- plant injury at 250 g/ha (rice (Oryza sativa)): 0%
- pest or weed control at 125 g/ha [11]: 30%
- pest or weed control at 500 g/ha [11]: 90%
- pest or weed control at 125 g/ha [12]: 40%
- pest or weed control at 500 g/ha [12]: 100%
- pest or weed control at 125 g/ha [13]: 10%
- pest or weed control at 500 g/ha [13]: 90%
- pest or weed control at 125 g/ha (kochia (Kochia scoparia) [14]): 20%
- pest or weed control at 500 g/ha (kochia (Kochia scoparia) [14]): 90%
- pest or weed control at 125 g/ha [15]: 10%
- pest or weed control at 500 g/ha [15]: 90%
- pest or weed control at 125 g/ha [16]: 90%
- pest or weed control at 500 g/ha [16]: 100%
